One may read the IC50 as the concentration needed to halve the response being measured. In general, pIC50 refers to −log10 of the IC50, conventionally taken in molar units.

Each structure is given as a SMILES string. pIC50: −log10 of the molar value. Where “and” joins values, the source holds several entries; their conditions need not be identical. Equal entries are not always repeated. Calls of active or inactive are those of the source. No rule for the calls is given here.

This test deals with Perilipin-1 (Homo sapiens) + 1-acylglycerol-3-phosphate O-acyltransferase ABHD5 (Homo sapiens) (UniProt O60240+Q8WTS1). The experiment in a line: inhibition of ABHD5 association with perilipin-1 – biochemical, luminescence, dose response, counter-screen for ABHD5-PLIN5 interaction inhibitor project, late-stage follow-up (AID 651766). As to conditions: ABHD5-PLIN1 interaction.
Regarding `CN(C)CCN(Cc1ccco1)c1ccccn1`, the IC50 was > 39.8 µM (inactive). In the case of `FC(F)(F)c1cccc(NC(=S)N(CCCN2CCCC2)Cc2cccn2Cc2ccc(Cl)cc2)c1`, the pIC50 is 5.05. Consider `COc1ccccc1-c1cc(C(=O)NC2CCN(C)CC2)c2ccc(Cl)c(C)c2n1`, for which the pIC50 is 5.01. Consider `CN(C)CCCN(C(=O)CCc1ccccc1)c1nc2ccc(Br)cc2s1`, for which the negative logarithm of the IC50 (pIC50) was 5.17. Turning to `CCOC(=O)c1c(NC(=O)/C=C/C(=O)O)sc(C)c1-c1ccc(C(C)(C)C)cc1`, the negative logarithm of the IC50 (pIC50) is 5.43. Consider `CCN(CC)CCOCCOC(=O)C1(c2ccccc2)CCCC1`, for which the pIC50 is 6.03. Same read-out and setting: then `CC1=CC(C)(C)Nc2ccc(OC(=O)C(C)N3C(=O)c4ccccc4C3=O)cc21` (stereo unspecified), with 5.67.

Regarding `CC(=O)Oc1ccc(C23c4ccccc4C2(OC(C)=O)c2cc(OC(C)=O)ccc23)cc1` (stereo unspecified), the IC50 is > 39.8 µM (inactive).

Take `CN(C)CCCN(C(=O)CCc1ccccc1)c1nc2ccc(Cl)cc2s1`: the pIC50 is 5.22. Consider `COCCN(CCOC)c1nc(N)c2c(N)nc3c(c2c1C#N)CC(=O)N3Cc1ccc(Cl)cc1`, for which the IC50 is > 39.8 µM (inactive).

On to `Cc1cc(C)c(NC(=O)C[N+](C)(C)CC(O)COc2cccc3ccccc23)c(C)c1` (stereo unspecified), for which the pIC50 is 5.35.

Regarding `NC(=NCCCCCCN=C(N)/N=C(\N)Nc1ccc(Cl)cc1)/N=C(\N)Nc1ccc(Cl)cc1`, the pIC50 was 5.67 and 5.66. As for `Cc1cc(C)c(NC(=O)CN2CCN3CCCC3C2)c(C)c1` (stereo unspecified), the IC50 entry is “inactive”. Consider `Cc1cc(C)c2nc(NNC(=O)c3ccc(S(=O)(=O)N4CCCC(C)C4)cc3)sc2c1` (stereo unspecified), for which the pIC50 is 5.60. As to `COc1cc(C)c2sc3ccccc3c(=O)c2c1NCCN(C)C`, the IC50 is > 39.8 µM (inactive). For `CN(C)CCOC1(Cc2ccc(F)cc2)CCC(C(C)(C)C)CC1` (stereo unspecified), the IC50 was > 39.8 µM (inactive). Turning to `CC(CCc1ccco1)NC(=O)CCc1nnc2ccc(NCc3ccccc3Cl)nn12` (stereo unspecified), the pIC50 is 6.13. For `CC(=O)Cc1cc(O)c2ccccc2c1OC(=O)c1ccc(Br)cc1`, the pIC50 was 5.69. Regarding `CCOc1cc(N)c(Cl)cc1C(=O)NCC1CN(Cc2ccc(F)cc2)CCO1` (stereo unspecified), the pIC50 was 5.92. With `CN1CCC(=C2c3ccccc3CC(=O)c3sccc32)CC1`, the IC50 was > 39.8 µM (inactive). Take `COc1cc2c(cc1OC)C(C)N(CCc1ccc(Cl)cc1)CC2` (stereo unspecified): the IC50 result was “inactive”.

On to `O=c1[nH]c(C2CCN(S(=O)(=O)c3ccc(S(=O)(=O)NC4CC4)cc3)CC2)nc2c1nnn2Cc1ccc(F)cc1`, for which the pIC50 is 5.70. For `CC(=O)Nc1ccc(S(=O)(=O)N2c3ccc(F)cc3CCC2C)cc1` (stereo unspecified), the pIC50 is 5.29.

For `CCN(CC)CCN(CC(=O)Nc1c(C)cc(C)cc1C)C(=O)c1ccccc1`, the pIC50 was 5.13. On the same count and under the same terms, as for `CCN(CC)CCC(C)OC(c1ccccc1)c1ccccc1` (stereo unspecified), the figure is 5.84; as for `Cc1nc2c(o1)CCc1ccccc1C2N1CCN(C)CC1` (stereo unspecified), 5.38; as for `CC1CCN(S(=O)(=O)c2ccc(NC(=O)Cc3ccccc3)cc2)CC1`, 5.40. As to `COc1ccc(NC(=S)N(CCCN2CCCC2)Cc2cccn2Cc2ccc(Cl)cc2)cc1Cl`, the IC50 entry is “inactive”. `Cc1ccc2c(CC(=O)N3CCN(S(=O)(=O)c4ccc5c(c4)OCCO5)CC3)coc2c1`: the pIC50 was 5.62 and 5.80.

As for `CC(=O)Cc1cc(O)c2ccccc2c1OC(=O)c1ccccc1`, the pIC50 is 5.87.

With `CCN(CC)CCNC(=O)c1ccc(NC(=O)c2cn(-c3ccccc3)nc2-c2cccs2)cc1`, the IC50 entry is “inactive”.

`C=C[C@]1(C)C[C@@H](OC(=O)CSCCN(CC)CC)[C@]2(C)C(C)CC[C@]3(CCC(=O)[C@H]32)[C@@H](C)[C@@H]1O` (stereo partly specified): the IC50 result is “inactive”. For `CCCNC(=O)Nc1ccc2c(c1)N(C)C(=O)c1ccccc1S2`, the pIC50 was 5.43.

Take `O=C(C[n+]1cccc(CNC(=O)c2ccc(OC(F)F)cc2)c1)Nc1cccc(C(F)(F)F)c1`: the IC50 result is “inactive”. Take `CCOC(=O)c1c(NC(C)=O)sc2c1CCC(C=O)=C2Sc1ccccc1`: the pIC50 was 5.79.

Take `CC1Sc2ccc(S(=O)(=O)N3CCC(C(=O)NCc4ccc(Cl)cc4)CC3)cc2NC1=O` (stereo unspecified): the pIC50 was 5.35. `O=C(/C(=C/O)N=Nc1ccc(Cl)cc1)c1ccncc1`: the pIC50 is 5.28. As for `COc1ccc(C)c2sc(N(CCN(C)C)C(=O)/C=C/c3cccs3)nc12`, the pIC50 is 5.14. Same read-out and setting: then `COc1cc(OC)cc(C(=O)NC(=S)N(Cc2ccccc2)C(C)C)c1`, with 5.84; and `CCN(CC)CCOc1ccc(/C(=C(/Cl)c2ccccc2)c2ccccc2)cc1`, with 6.01; and `O=c1[nH]c(C2CCN(S(=O)(=O)c3ccc(F)cc3)CC2)nc2c1nnn2Cc1ccc2c(c1)OCCO2`, with 5.05.

`CC(C)c1ccc(N2C=Nc3ccc(C(C)C)cc3C2)cc1`: the pIC50 is 5.90. Take `CC1CCN(S(=O)(=O)c2ccc(NC(=O)Cc3cccs3)cc2)CC1`: the pIC50 is 5.45. Consider `CCCCNC(=O)Nc1ccc2c(c1)N(C)C(=O)c1ccccc1S2`, for which the pIC50 is 5.84.

On to `CCCCOC(=O)Nc1cc(C(=O)OC)ccc1C(=O)OC`, for which the pIC50 was 5.42. Regarding `Cc1ccc2nc3cc([N+](=O)[O-])cc([N+](=O)[O-])c3cc2c1`, the pIC50 is 6.30.

(Values after PubChem BioAssay AID651766 (The Scripps Research Institute Molecular Screening Center, 2012).)
